In patent US6897210B2, “Quinazoline derivatives and pharmaceutical compositions containing them” (Zeneca Limited, priority 1996, dated 2005):

Experiments:
[1] = test system: VEGF receptor tyrosine kinase (Flt, KDR); assay: In vitro receptor tyrosine kinase inhibition test (VEGF receptor); type: biochemical; conditions: VEGF receptor tyrosine kinase compared with EGF receptor tyrosine kinase
Description: (a) In Vitro Receptor Tyrosine Kinase Inhibition Test
This assay determines the ability of a test compound to inhibit tyrosine kinase activity. […] These may then be expressed in a suitable expression system to obtain polypeptide with tyrosine kinase activity. […] This recombinant construct was co-transfected into insect cells (for example Spodoptera frugiperda 21(Sf21)) with viral DNA (eg Pharmingen BaculoGold) to prepare recombinant baculovirus.
For expression of cFlt tyrosine kinase activity, Sf21 cells were infected with plaque-pure cFlt recombinant virus at a multiplicity of infection of 3 and harvested 48 hours later. […] The suspension was centrifuged for 10 minutes at 13,000 rpm at 4° C., the supernatant (enzyme stock) was removed and stored in aliquots at −70° C. Each new batch of stock enzyme was titrated in the assay by dilution with enzyme diluent (100 mM Hepes pH 7.4, 0.2 mM sodium orthovanadate. 0.1% v/v Triton X100, 0.2 mM dithiothreitol). For a typical batch, stock enzyme is diluted 1 in 2000 with enzyme diluent and 50 μl of dilute enzyme is used for each assay well.
A stock of substrate solution was prepared from a random copolymer containing tyrosine, for example Poly (Glu, Ala, Tyr) 6:3:1 (Sigma P3899), stored as 1 mg/ml stock in PBS at −20° C. and diluted 1 in 500 with PBS for plate coating.
On the day of the assay the substrate solution was discarded and the assay plate wells were washed once with PBST (PBS containing 0.05% v/v Tween 20) and once with 50 mM Hepes pH7.4.
Test compounds were diluted with 10% dimethylsulphoxide (DMSO) and 25 μl of diluted compound was transferred to wells in the washed assay plates. “Total” control wells contained 10% DMSO instead of compound. Twenty five microliters of 40 mM manganese(II)chloride containing 8 μM adenosine-5′-triphosphate (ATP) was added to all test wells except “blank” control wells which contained maganese(II)chloride without ATP. To start the reactions 50 μl of freshly diluted enzyme was added to each well and the plates were incubated at room temperature for 20 minutes. The liquid was then discarded and the wells were washed twice with PBST. […] Plates were then incubated for 20-60 minutes at room temperature until the optical density value of the “total” control wells, measured at 405 nm using a plate reading spectrophotometer, was approximately 1.0.

- melting point: > 250 °C
- activity against VEGF and EGF receptor tyrosine kinases [1]: substantially equivalent activity
Structure (SMILES): COc1cc2c(Nc3ccc(Cl)cc3F)ncnc2cc1OCCN1CCNC1=O [Example 40, 4-(4-chloro-2-fluoroanilino)6-methoxy-7-(2-(2-oxoimidazolidin-1-yl)ethoxy)quinazoline]
